This assay has as its target T1, Epac1-camps-His6 (Homo sapiens, UniProt O95398).
T1 construct: made in house; host or cells: E. coli BL21(DE3)-CodonPlus-RIL / BL21(DE3)-pLysS, pET11a
T1 sequence (O95398 199-357 limits assumed): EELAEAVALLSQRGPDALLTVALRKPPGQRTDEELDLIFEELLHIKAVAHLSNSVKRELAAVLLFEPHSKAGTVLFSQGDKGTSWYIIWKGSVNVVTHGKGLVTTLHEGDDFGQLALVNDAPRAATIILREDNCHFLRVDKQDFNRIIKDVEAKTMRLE
Nature of the assay: cell-free FRET assay with purified Epac1-camps-His6 in 96 multi-well plates (EYFP/ECFP ratio R/R0). Particulars: 96 MWP, plate reader. The class given is biochemical.

Consider one compound from paper PMC7450941, “Establishing a sensitive fluorescence-based quantification method for cyclic nucleotides” (BMC Biotechnology, 2020).

In general, pEC50 refers to the negative decadic logarithm of the EC50, by convention in mol/L.

pEC50: −log10 of the molar value.

Experimental: To assess the functionality of the purified Epac1-camps-His6 protein, the protein was diluted to 0.7 μM and 90 μl of this solution was added to each well of a 96 multi well plate (MWP). Fluorescence emission in each well was measured in a plate reader. Excitation was at 430 nm and emission was recorded at 475 nm (ECFP) and 530 nm (EYFP). […] The final volume in each well was 100 μl, and final concentrations of cyclic nucleotides ranged from 10^− 9 - 10^− 4 M. Incubation of the sensor protein with its ligands was for 30 min. at room temperature. […] Normalized data were plotted against cyclic nucleotide concentrations and EC50 values were calculated. […] Mean values with standard deviations were obtained from four-fold determinations for each cyclic nucleotide.
Purified Epac1-camps-His6 protein was diluted to a concentration of 0.7 μM in IS buffer and 90 μl of the sample was added to each well of a 96 multi well plate. Excitation was at 430 nm and emission was recorded at 475 nm (ECFP) and 530 nm (EYFP). […] The final volume was 100 μl and final concentrations of cyclic nucleotides ranged from 10^− 9 - 10^− 4 M. The EYFP/ECFP ratio (R) for each well was calculated and normalized to the ratio of the basal fluorescence in the absence of cyclic nucleotides (R0). […] EC50 values were calculated with a four-parameter nonlinear regression using GraphPad Prism v5.04 […]

Consider `Nc1nc2c(ncn2[C@@H]2O[C@@H]3COP(=O)(O)O[C@H]3[C@H]2O)c(=O)[nH]1` [cGMP, cyclic guanosine 3′,5′-monophosphate], for which the pEC50 was 5.11.
